Assay results reported in ChEMBL document CHEMBL1201862, “PubChem BioAssay data set” (2004).
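In this assay, cells in 96-well plates receive the compound at five concentrations for 48 hours. Endpoints are linearly interpolated between the surrounding concentrations. Abbreviation: GI50, concentration required for 50% inhibition of growth.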 The source made the active and inactive calls. Cut-off read from the data, not from the text of the source: active = GI50 up to about 1.1 µM and inactive = higher.

Columns and labels:
Assay in all cases: growth of human tumour cells (NCI), 48 h
SR = tested on: SR
LOX IMVI = tested on: LOX IMVI
786-0 = tested on: 786-0
HL-60 = tested on: HL-60
NCI-H226 = tested on: NCI-H226
TK-10 = tested on: TK-10
MDA-MB-231 = tested on: MDA-MB-231
OVCAR-4 = tested on: OVCAR-4
HT-29 = tested on: HT-29
SN12C = tested on: SN12C
CAKI-1 = tested on: CAKI-1
IGROV-1 = tested on: IGROV-1
A498 = tested on: A498
SK-MEL-5 = tested on: SK-MEL-5
U-251 = tested on: U-251
SK-MEL-2 = tested on: SK-MEL-2
NCI-H23 = tested on: NCI-H23
PC-3 = tested on: PC-3
UO-31 = tested on: UO-31
COLO 205 = tested on: COLO 205
MDA-N = tested on: MDA-N
Malme-3M = tested on: Malme-3M
SNB-75 = tested on: SNB-75
NCI-H522 = tested on: NCI-H522
HCT-15 = tested on: HCT-15
HCT-116 = tested on: HCT-116
UACC-257 = tested on: UACC-257
M14 = tested on: M14
SNB-19 = tested on: SNB-19
NCI-H460 = tested on: NCI-H460
CCRF-CEM = tested on: CCRF-CEM
T47D = tested on: T47D
SK-MEL-28 = tested on: SK-MEL-28
OVCAR-3 = tested on: OVCAR-3
K562 = tested on: K562
EKVX = tested on: EKVX
HOP-62 = tested on: HOP-62
BT-549 = tested on: BT-549
SK-OV-3 = tested on: SK-OV-3
NCI/ADR-RES = tested on: NCI/ADR-RES
UACC-62 = tested on: UACC-62
MDA-MB-435 = tested on: MDA-MB-435
OVCAR-5 = tested on: OVCAR-5
DU-145 = tested on: DU-145
KM12 = tested on: KM12
HOP-92 = tested on: HOP-92
A549 = tested on: A549
RPMI-8226 = tested on: RPMI-8226
Hs-578T = tested on: Hs-578T
MCF7 = tested on: MCF7
OVCAR-8 = tested on: OVCAR-8
SF-268 = tested on: SF-268
SW-620 = tested on: SW-620
HCC 2998 = tested on: HCC 2998
SF-295 = tested on: SF-295
SF-539 = tested on: SF-539
MOLT-4 = tested on: MOLT-4
ACHN = tested on: ACHN

CN(C)CCOc1ccc2[nH]c(C(=O)N3CC(CCl)c4c3cc(N)c3ccccc43)cc2c1 (configuration not stated)
GI50 (SR): < 10 nM (active)
GI50 (LOX IMVI): < 10 nM (active)
GI50 (786-0): < 10 nM (active)
GI50 (HL-60): < 10 nM (active)
GI50 (NCI-H226): < 10 nM (active)
GI50 (TK-10): < 10 nM (active)
GI50 (MDA-MB-231): < 10 nM (active)
GI50 (OVCAR-4): < 10 nM (active)
GI50 (HT-29): < 10 nM (active)
GI50 (SN12C): < 10 nM (active)
GI50 (CAKI-1): < 10 nM (active)
GI50 (IGROV-1): < 10 nM (active)
GI50 (A498): < 10 nM (active)
GI50 (SK-MEL-5): < 10 nM (active)
GI50 (U-251): < 10 nM (active)
GI50 (SK-MEL-2): < 10 nM (active)
GI50 (NCI-H23): < 10 nM (active)
GI50 (PC-3): < 10 nM (active)
GI50 (UO-31): < 10 nM (active)
GI50 (COLO 205): < 10 nM (active)
GI50 (MDA-N): < 10 nM (active)
GI50 (Malme-3M): < 10 nM (active)
GI50 (SNB-75): < 10 nM (active)
GI50 (NCI-H522): < 10 nM (active)
GI50 (HCT-15): < 10 nM
GI50 (HCT-116): < 10 nM (active)
GI50 (UACC-257): < 10 nM (active)
GI50 (M14): < 10 nM (active)
GI50 (SNB-19): < 10 nM (active)
GI50 (NCI-H460): < 10 nM (active)
GI50 (CCRF-CEM): < 10 nM (active)
GI50 (T47D): < 10 nM (active)
GI50 (SK-MEL-28): < 10 nM (active)
GI50 (OVCAR-3): < 10 nM (active)
GI50 (K562): < 10 nM (active)
GI50 (EKVX): < 10 nM (active)
GI50 (HOP-62): < 10 nM (active)
GI50 (BT-549): < 10 nM (active)
GI50 (SK-OV-3): < 10 nM (active)
GI50 (NCI/ADR-RES): < 10 nM (active)
GI50 (UACC-62): < 10 nM (active)
GI50 (MDA-MB-435): < 10 nM (active)
GI50 (OVCAR-5): < 10 nM (active)
GI50 (DU-145): < 10 nM (active)
GI50 (KM12): < 10 nM (active)
GI50 (HOP-92): < 10 nM (active)
GI50 (A549): < 10 nM (active)
GI50 (RPMI-8226): < 10 nM (active)
GI50 (Hs-578T): < 10 nM (active)
GI50 (MCF7): < 10 nM (active)
GI50 (OVCAR-8): < 10 nM (active)
GI50 (SF-268): < 10 nM (active)
GI50 (SW-620): < 10 nM (active)
GI50 (HCC 2998): < 10 nM (active)
GI50 (SF-295): < 10 nM (active)
GI50 (SF-539): < 10 nM (active)
GI50 (MOLT-4): < 10 nM (active)
GI50 (ACHN): < 10 nM (active)

Cc1oc(N)c(S(=O)(=O)c2cc3ccccc3[n+]([O-])c2N)c1C
GI50 (SR): < 10 nM (active)
GI50 (LOX IMVI): > 100000 nM (inactive)
GI50 (786-0): > 100000 nM (inactive)
GI50 (NCI-H226): > 100000 nM (inactive)
GI50 (TK-10): > 100000 nM (inactive)
GI50 (MDA-MB-231): > 100000 nM (inactive)
GI50 (OVCAR-4): > 100000 nM (inactive)
GI50 (HT-29): > 100000 nM (inactive)
GI50 (SN12C): > 100000 nM (inactive)
GI50 (CAKI-1): > 100000 nM (inactive)
GI50 (IGROV-1): > 100000 nM (inactive)
GI50 (A498): > 100000 nM (inactive)
GI50 (SK-MEL-5): > 100000 nM (inactive)
GI50 (U-251): > 100000 nM (inactive)
GI50 (SK-MEL-2): > 100000 nM (inactive)
GI50 (NCI-H23): > 100000 nM (inactive)
GI50 (PC-3): > 100000 nM (inactive)
GI50 (UO-31): > 100000 nM (inactive)
GI50 (COLO 205): > 100000 nM (inactive)
GI50 (MDA-N): > 100000 nM (inactive)
GI50 (Malme-3M): > 100000 nM (inactive)
GI50 (SNB-75): > 100000 nM (inactive)
GI50 (NCI-H522): > 100000 nM (inactive)
GI50 (HCT-15): > 100000 nM
GI50 (UACC-257): > 100000 nM (inactive)
GI50 (M14): > 100000 nM (inactive)
GI50 (SNB-19): > 100000 nM (inactive)
GI50 (NCI-H460): > 100000 nM (inactive)
GI50 (T47D): > 100000 nM (inactive)
GI50 (SK-MEL-28): > 100000 nM (inactive)
GI50 (OVCAR-3): > 100000 nM (inactive)
GI50 (EKVX): > 100000 nM (inactive)
GI50 (HOP-62): > 100000 nM (inactive)
GI50 (BT-549): > 100000 nM (inactive)
GI50 (SK-OV-3): > 100000 nM (inactive)
GI50 (NCI/ADR-RES): > 100000 nM (inactive)
GI50 (UACC-62): > 100000 nM (inactive)
GI50 (MDA-MB-435): > 100000 nM (inactive)
GI50 (OVCAR-5): > 100000 nM (inactive)
GI50 (DU-145): > 100000 nM (inactive)
GI50 (KM12): > 100000 nM (inactive)
GI50 (HOP-92): > 100000 nM (inactive)
GI50 (A549): > 100000 nM (inactive)
GI50 (RPMI-8226): > 100000 nM (inactive)
GI50 (Hs-578T): > 100000 nM (inactive)
GI50 (MCF7): > 100000 nM (inactive)
GI50 (OVCAR-8): > 100000 nM (inactive)
GI50 (SF-268): > 100000 nM (inactive)
GI50 (SW-620): > 100000 nM (inactive)
GI50 (HCC 2998): > 100000 nM (inactive)
GI50 (SF-295): > 100000 nM (inactive)
GI50 (SF-539): > 100000 nM (inactive)
GI50 (MOLT-4): > 100000 nM (inactive)
GI50 (ACHN): > 100000 nM (inactive)
